{"source": "patent US4808612A", "about": "“2-Arylbenzo(b)(1,6)naphthyridines as inhibitors of interleukin 1” (American Home Products Corporation, priority 1987, dated 1989)", "test_system": "IL 1-induced release of neutral protease from rabbit articular chondrocytes", "assay": "Inhibition of the IL 1-induced release of neutral protease from rabbit articular chondrocytes (azocoll neutral protease assay)", "type": "cell-based", "conditions": "Oryctolagus cuniculus, Chondrocyte, purified human IL 1, 24 h after IL 1 stimulation, read-out: % Inhibition (S.D)", "protocol": "The ability of the compounds of the inventions to inhibit interleukin 1 is measured by the ability of the test compounds to inhibit the IL 1-induced release of neutral protease from rabbit articular chondrocytes.\nThis assay is carried out as follows:\nIsolation of rabbit chondrocytes:\nMale New Zealand White rabbits are anesthetized with 50 mg/kg of ketamine (i.m.) and killed by an intracardiac injection of 3 mls. of Nembutal. The knee joints of both legs are resected and the articular surfaces are exposed. Cartilage slices are obtained using a scalpel and are placed in a tissue culture dish (100 mm diameter) containing 10 mls of Hank's balanced salt solution (HBSS). The chondrocytes within the cartilage slices are then liberated by a series of enzyme digestions. The slices are incubated for 10 min. at 37° C. in 0.05% hyaluronidase (Sigma H-3884), rinsed with HBSS and incubated with 0.2% trypsin (Sigma T-2395) for 10 min. at 37° C. The slices are rinsed again and incubated for 10 mins. at 37° C. with 1.2% collagenase (Sigma C-5138). The slices are then rinsed again with HBSS and resuspended in 10 ml of Ham's F-12 medium containing 10% fetal bovine calf cerum (FCS) and 0.2% collagenase and incubated overnight at 37° C. in a 5% CO2 incubator. The next day, the medium containing the digested cartilage fragments and liberated chondrocytes is transferred to a 15 ml centrifuge tube and the cells are collected by centrifugation and washed twice and resuspended in Ham's F-12 medium. The cells are then plated into 24-well tissue culture plates (2×10^5 cells/well) and incubated at 37° C. until confluent (usually 4-6 days).\nStimulation of chondrocytes and drug treatment:\nThe confluent chondrocytes are rinsed twice with serum-free Ham's F-12 medium and 1 ml is added to each well. Fifty μl of purified human IL 1 (100 Units/ml; Genzyme Corporation, Boston, MA) is then added to stimulate these cells to secrete neutral protease. To measure drug effects, the cells are treated with test compound 10 min. prior to addition of IL 1. The standard screening dose is 10 μM. Twenty-four hours after IL 1 stimulation, supernatant fluids are collected and assayed for neutral protease activity.\nThe neutral protease activity of chondrocyte supernatant fluids is determined by their ability to degrade an insoluble protease substrate, azocoll (Sigma). Supernatants are treated for 10 min. at room temperature with 350 μM p-aminophenylmurcuric acetate to activate the latent enzyme. Three hundred μl of supernatant is then mixed with 500 μl of a 20 mg/ml suspension of azocoll and incubated at 37° C. for 18-24 hrs. with gentle rocking. The mixtures are centrifuged and the amount of substrate hydrolyzed is determined by measuring the absorbance of the supernatant at 520 nm.\nDrug effects are calculated as the % change in enzyme activity (absorbance)by supernatants from drug-treated chondrocytes relative to enzyme activity of supernatants from vehicle-treated chondrocytes as follows: [formula]"}
{"smiles": "N#Cc1ccc(N2CCc3nc4cc(Cl)ccc4c(Cl)c3C2)cc1", "note": "[Example 1, 4-(7,10-Dichloro-3,4-dihydrobenzo[b][1,6]naphthyridin-2(1H)-yl)benzonitrile]", "values": [{"measurement": "inhibition at 10 µM", "value": "22 ± 1", "unit": "%"}]}
{"smiles": "CCOC(=O)c1ccc(N2CCc3nc4cc(Cl)ccc4c(Cl)c3C2)cc1", "note": "[Example 2, 4-(7,10-Dichloro-3,4-dihydrobenzo[b][1,6]naphthyridin-2(1H)-yl)benzoic acid ethyl ester]", "values": [{"measurement": "inhibition at 10 µM", "value": "35 ± 16", "unit": "%"}]}
{"smiles": "CS(=O)(=O)c1ccc(N2CCc3nc4cc(Cl)ccc4c(Cl)c3C2)cc1", "note": "[Example 3, 7,10-Dichloro-1,2,3,4-tetrahydro-2-(4-methylsulfonyl)phenylbenzo[b][1,6]naphthyridine]", "values": [{"measurement": "inhibition at 0.1 µM", "value": "69 ± 1", "unit": "%"}, {"measurement": "inhibition at 1 µM", "value": "66 ± 1", "unit": "%"}, {"measurement": "inhibition at 10 µM", "value": "62 ± 2", "unit": "%"}]}
{"smiles": "Fc1ccc(N2CCc3nc4cc(Cl)ccc4c(Cl)c3C2)cc1", "note": "[Example 4, 7,10-Dichloro-2-(4-fluorophenyl)-1,2,3,4-tetrahydrobenz[b][1,6]naphthyridine]", "values": [{"measurement": "inhibition at 1 µM", "value": "9 ± 20", "unit": "%"}, {"measurement": "inhibition at 10 µM", "value": "76 ± 29", "unit": "%"}]}
{"smiles": "N#Cc1ccc(N2CCc3nc4ccccc4c(Cl)c3C2)cc1", "note": "[Example 5, 4-(10-Chloro-3,4-dihydrobenzo[b][1,6]naphthyridine-2(1H)-yl)benzonitrile, hemihydrate]", "values": [{"measurement": "inhibition at 10 µM", "value": "66 ± 29", "unit": "%"}]}
{"smiles": "CCOC(=O)c1ccc(N2CCc3nc4ccccc4c(Cl)c3C2)cc1", "note": "[Example 8, 4-(10-Chloro-3,4-dihydrobenzo[b][1,6]naphthyridin-2(1H)-yl)benzoic acid ethyl ester]", "values": [{"measurement": "inhibition at 0.1 µM", "value": 40, "unit": "%"}, {"measurement": "inhibition at 1 µM", "value": 43, "unit": "%"}, {"measurement": "inhibition at 10 µM", "value": 91, "unit": "%"}]}
{"smiles": "N#Cc1ccc(N2CCc3nc4ccc(Cl)cc4c(Cl)c3C2)cc1", "note": "[Example 9, 4-(8,10-Dichloro-3,4-dihydrobenzo[b][1,6]naphthyridin-2(1H)-yl)benzonitrile, 1/4 hydrate]", "values": [{"measurement": "inhibition at 1 µM", "value": 43, "unit": "%"}, {"measurement": "inhibition at 10 µM", "value": 86, "unit": "%"}]}
{"smiles": "Cc1ccc2c(Cl)c3c(nc2c1)CCN(c1ccc(C#N)cc1)C3", "note": "[Example 10, 4-(10-Chloro-3,4-dihydro-7-methylbenzo[b][1,6]naphthyridin-2(1H)-yl)benzonitrile, 1/5 ethyl acetate]", "values": [{"measurement": "inhibition at 10 µM", "value": 33, "unit": "%"}]}
{"smiles": "N#Cc1ccc(N2CCc3nc4cc(F)ccc4c(Cl)c3C2)cc1", "note": "[Example 11, 4-(10-Chloro-7-fluoro-3,4-dihydrobenzo[b][1,6]naphthyridin-2(1H)-yl)benzonitrile, 1/4 hydrate]", "values": [{"measurement": "inhibition at 10 µM", "value": "< 20", "unit": "%"}]}
{"smiles": "N#Cc1ccc(N2CCc3nc4cc(Cl)ccc4c(NNc4ccccc4)c3C2)cc1", "note": "[Example 12, 4-[7-Chloro-3,4-dihydro-10-(2-phenylhydrazino)benzo[b][1,6]naphthyridin-2(1H)-yl]benzonitrile, hydrate]", "values": [{"measurement": "inhibition at 10 µM", "value": 69, "unit": "%"}]}
